Laboratory results as given in patent US12605390B2, “Treatment of cancer and inhibition of metastasis” (Celex Oncology Innovations Limited, priority 2017, dated 2026).
Read-outs that look alike come from different tables or passages of the source.

Columns and labels:
[1] = system: MDA-MB-231 cells; assay: MTT proliferation assay; assay type: cell-based, human; conditions: 48 hours; for effect on cell proliferation versus negative controls: 10 μM, hypoxic and normoxic conditions
Procedure: Cells were plated at 2×10^4 cells/ml in 24-well plates (Becton-Dickinson) and allowed to settle overnight. The cells were then treated for the required time of incubation (24 hours+), with medium changes every 24 hours. At the end of the treatment, the medium was removed, and this was followed by the colorimetric 3-[4,5-dimethylthiazol-2-yl]-2,5-diphenyltetrazolium bromide ([…]) assay (Grimes et al., 1995). Briefly, 0.1 ml MU (5 mg/ml made up in the growth medium) and 0.4 ml growth medium was added in each well and the plate was incubated for 3-4 hours at 37° C. The medium was then removed from the chambers and replaced with 0.5 ml dimethyl sulfoxide (DMSO) and 0.063 ml glycine buffer (0.1 M glycine and 0.1 M NaCl; pH 10.5). Absorbance at 570 nm was determined 15 minutes after the addition of the glycine buffer. Results were calculated as means of nine repeats of each of the treatment vs. control spectrophotometer readings from individual invasion wells.
Proliferation was indirectly measured using MTT (3-(4,5-dimethylthiazolyl-2)-2,5-diphenyltetrazolium). In principle, MTT is taken up and processed by metabolically active cells, which produce formazan as a by-product. Formazan is a purple dye which can be quantified on a spectrophotometer, providing a link between absorbance readings (570 nm) and cell number.
Cells were plated in 24-well plates at a density of 2×10^4 cells per well and pre-treated with 1 ml of the respective drug solutions (see FIG. 5.) for 48 hours in hypoxia and normoxia. 0.1 ml of MU (1 mg/ml) diluted in 0.4 ml of media was administered to each well, followed by 4 hours of incubation in dark, normoxic conditions (MU is light—sensitive). The solution was subsequently aspirated and 0.5 ml of 99.9% DMSO was added in combination with 75 μL glycine buffer. The dye was able to dissolve in DMSO during a 15 minute—incubation on a shaking platform at 150 cycles/minute. The absorbance was read using ELX800 Universal Microplate Reader (BioTek Instruments) with the background measuring 0.04. […]

[2] = system: MDA-MB-231 cells; assay: Matrigel invasion assay under hypoxia; assay type: cell-based, human
Procedure: This assay is an extension of the transverse migration assay described above. To “invade”, the cells need both (i) to move as in the transverse migration assay and (ii) secrete a proteolytic enzyme to digest their surroundings. The ability of cells to invade neighbouring tissues by enzyme secretion was therefore assessed by using a layer of Matrigel™ (BD Biosciences) spread across the porous membrane of a Transwell® insert.
50 μl Matrigel™ was seeded at a 1:7 dilution (10 mg/ml stock) onto the inserts and left overnight. Prior to seeding with the cells the Matrigel™ was rehydrated using medium with no additions. This medium was removed prior to seeding the cells.
Cells were plated in a 1-5% FBS chemotactic gradient overnight (12 hours).
Invaded cells were fixed for 15 minutes with ice-cold methanol. […] The inserts were swabbed again and then washed in water and allowed to dry. Cells were then counted using twelve separate fields of view per insert (×200 magnification). If the difference in the average number of cells invading the two control inserts was more than 40%, the experiment was rejected.
The matrigel solidified at 37° C. normoxia overnight and was hydrated at 37° C. normoxia for 3 hours using 0.5 ml FBS-free media. 300 μL of media containing 5% FBS was administered to the lower chamber and the same amount of media containing 1% FBS was added to the upper chamber (transwell filters). 2×10^4 cells were added to the 1% solution, allowing their invasion through the matrigel along the chemotactic gradient. Cells were left to settle and invade under hypoxic conditions overnight.

[3] = system: MDA-MB-231 cells; assay type: cell-based, human; conditions: 20 μM, 48 hours
Procedure: Cells were seeded at a density of 5×10^4 cells/ml in 35 mm Falcon tissue culture dishes. After treatment with a given drug, the medium was removed and replaced with 800 μl of growth medium and 200 μl 0.4% trypan blue (Sigma, Dorset, UK) and incubated for 10 minutes in the incubator. The trypan blue was removed and the cells were washed once with 3 ml growth medium. For each treatment, cells from 30 random fields of view were counted under 100× magnification. The number of dead cells, stained blue, was counted in each field of view. The data were expressed as percentages of living cells out of the total number of cells in given fields of view. The percentages were averaged and differences between control and treatment were compared from at least three independent experiments.
Cell viability and therefore drug toxicity was determined using the trypan blue assay. The procedure follows the principle that viable cells surrounded by an intact double membrane cannot absorb the trypan blue dye, whereas dead and fragmented cells can. […]
The solution was subsequently replaced with 0.2 ml of 0.4% trypan blue (Sigma-Aldrich) and 0.8 ml of media. […] Cell viability was determined by counting the proportion of viable and dead cells in 30 fields of view on each dish (Zeiss Axiovert 25 phase contrast microscope, ×40 magnification).

[4] = target: T1, persistent current (Homo sapiens, UniProt Q14524); assay: Patch-clamp (data not shown); assay type: cell-based; conditions: 10 μM
T1 construct: transient and persistent sodium current, using the highly invasive human breast cancer cell line MDA-MB-231; endogenous in cells; host or cells: MDA-MB-231

[5] = system: neonatal Nav1.5; assay: Immunocytochemistry of nNav1.5 protein expression in MDA-MB-231 cells; assay type: cell-based, human; conditions: 10 μM, 24 hour treatment, normoxic and hypoxic conditions
Procedure: Cells were pre-treated with either 10 μM Eleclazine or DMSO in both normoxic and hypoxic conditions for 24 hours. The following day, round 13 mm coverslips were placed into 24-well plates and incubated with 0.5 ml poly-L-lysine for 20 minutes. The solution was aspirated and 2×10^4 pre-treated cells were added on top of each coverslip. The wells were filled up to 0.5 ml with the respective drug solutions and cells were left to settle onto the coverslips in normoxic and hypoxic conditions overnight.
Cells were washed with PBS and fixed by incubating coverslips with 0.5 ml 4% PFA (in PBS) for 15 minutes. Coverslips were then washed in PBS three times for 5 minutes. Half of the samples were permeabilised in 0.1% Saponin/PBS (4 minutes) followed by three 5 minute washes in PBS. Cells were blocked for 1 hour with 0.5 ml 5% BSA/PBS (pH 7.4). Coverslips were incubated with 70 μL NESOpAb (primary antibody specific for neonatal Nav1.5; 1:100 dilution) for 1 hour in a humidity chamber (room temperature). Three 5 minute PBS washes rinsed off residual NESOpAb and the secondary antibody (goat anti-rabbit IgG Alexa Fluor 568, 1:100 dilution) was administered for 1 hour in the dark. […]
Imaging was conducted on a Zeiss axiovert 200 inverted microscope. […] The corrected total cell fluorescence was quantified using ImageJ.

[6] = system: MDA-MB-231 cells; assay: Lateral motility (wound heal) assay; assay type: cell-based, human; conditions: 10 μM, hypoxic conditions
Procedure: In order to determine lateral motility, a “wound-heal (“scratch”)” test was carried out, in which a scratch 504 of […] was made through the layer of cells, as shown in FIG. 5(b) which is a side sectional view of the cell culture dish. During the period of 24 hours following the formation of the scratch, the cells moved into the gap.
10^6 cells were plated in each 35×10 mm dish and kept in normoxic conditions to settle overnight. Each dish was marked by 15 parallel vertical lines and 3 non-overlapping horizontal lines. The media was refreshed and three wounds were made along the marked vertical lines using a 1 ml Gilson pipette tip. Floating cells were removed by 3 consecutive media washes and adherent cells were treated with 1 ml of the respective drug solution (10 μM Eleclazine/DMSO). The initial wound width (W0) was measured at 45 fixed points (where the vertical lines cross the wounds) using the graticule on a phase-contrast microscope (×10 magnification). Cells were then incubated in both normoxic and hypoxic conditions, with drug solutions being replaced every 24 hours. Wound width was measured every 12 hours and the motility of this breast cancer cell line was analysed using the “motility index” (MI=1-(Wt/W0)). A motility index of 1 accounts for complete wound closure, whereas MI=0 represents zero cell movement. […]

[7] = system: MDA-MB-231 cells; conditions: 24 hours

CC[N+](CC)(CC)CC [TEA]
reduction of cell proliferation ([1]; 2 mM, positive control): approximately 50%

NC1=N[C@H](O)[C@H]2[C@H]3O[C@]4(O)O[C@@H]([C@@H](O)[C@@]2(N1)[C@@H]4O)[C@]3(O)CO [TTX, tetrodotoxin, reference compound]
effect on invasiveness [2]: decreases

O=C1c2cc(-c3ccc(OC(F)(F)F)cc3)ccc2OCCN1Cc1ncccn1 [eleclazine, 4-(pyrimidin-2-ylmethyl)-7-(4-(trifluoromethoxy)phenyl)-3,4-dihydrobenzo[f][1,4]oxazepin-5(2H)-one]
average proportion of viable cells per field of view [3]: 99.96% | effect on persistent current [4]: effectively blocked | effect on invasiveness ([2]; 0.5 μM, hypoxia (1% O2), 24 h pre-incubation, invasion over 16 h): does not affect invasiveness | number of cells invading, median (interquartile range) ([2]; 1 μM, hypoxia (1% O2), 24 h pre-incubation, invasion over 16 h, control 175.0 (113 & 255)): 131.5 (100 & 175) | reduction of invasiveness ([2]; 5 μM, hypoxia): approximately 50% | effect on invasiveness (preliminary assays) ([2]; 10 μM, hypoxic conditions): drastically reduced | effect on cell proliferation versus negative controls [1]: no statistically significant difference | nNav1.5 protein expression, corrected total cell fluorescence (CTCF) [5]: statistically significant reduction | reduction of lateral motility ([6]; after 12 hours): 5% | reduction of lateral motility ([6]; after 48 hours): 30%

OO [hydrogen peroxide]
mean detachment negative pressure, change versus untreated cells ([7]; 1 μM): approximately −9% | mean detachment negative pressure, change versus untreated cells ([7]; 10 μM): approximately −14% | mean detachment negative pressure, change versus untreated cells ([7]; 100 μM): approximately −20%

COc1ccccc1OCC(O)CN1CCN(CC(=O)Nc2c(C)cccc2C)CC1 (centres unmarked) [ranolazine, reference compound]
effect on invasiveness ([2]; 5 μM, hypoxia (1% O2), 24 h pre-incubation, invasion over 16 h): suppress invasiveness significantly | effect on cell proliferation versus negative controls [1]: no significant effect
